According to patent US20260137082A1 (priority 2021, published 2026):
In brackets after ≈: the same amount, converted by molar mass. Like-named read-outs stand apart in the source and are kept apart here.

Legend:
Gibberella fujikuroi = test: microbe, parasite or virus in culture; format: cell-based; conditions: Fusarium fujikuroi, 72 h, read-out: EC50 Value
Fusarium asiaticum = test: microbe, parasite or virus in culture; conditions: 72 h, read-out: EC50 Value
Protocol: The fungicidal activity of cyclobutrifluram, fludioxonil (FDL), and mixtures thereof with various weight ratios (e.g., 10:1 and 1:50) of cyclobutrifluram and FDL was tested against Fusarium asiaticum and Fusarium pseudograminearum.
Specifically, according to the results of pre-experiment, the best concentration ranges for determination of the sensitivity of pathogens to cyclobutrifluram, FDL and mixtures thereof were respectively determined, and 5-7 concentration gradients were set to make the inhibition rate at the minimum concentration close to 10% and the inhibition rate at the highest concentration close to 90%. […]
Mycelial plugs in the edge of colony were prepared by hole puncher with a diameter of 5 mm. […] After cultured in an incubator at 25° C. for three days in darkness, the diameters of every mycelial colony on PDA plates were measured twice perpendicularly and then averaged. […]
The EC50 values of each tested agent and each mixture were calculated by the linear regression analysis between the probability value of the inhibition rate and the log value of the series of concentrations. The co-toxicity coefficient (CTC) of the mixtures was calculated and evaluated according to the Sun-YP method.

[1] = tested on: Fusarium graminearum (Gibberella zeae) strain K-6102; format: cell-based; conditions: solo fungicide, 4 days, 24° C., OD 620 nm

SMILES | EC50 (Gibberella fujikuroi) [µg/mL] | EC50 (Fusarium asiaticum) [µg/mL] | Efficacy (%, n = 5) ([1]; 0.1 ppm) [%] | Efficacy (%, n = 5) ([1]; 1 ppm) [%] | Efficacy (%, n = 5) ([1]; 10 ppm) [%]
O=C(NC1CCC1c1ccc(Cl)cc1Cl)c1cccnc1C(F)(F)F (stereo in doubt) [cyclobutrifluram, N-[(1,2 cis)-2-(2,4-dichlorophenyl)cyclobutyl]-2-(trifluoromethyl)pyridine-3-carboxamide] | 0.75 (≈ 1.93 µM) | 0.0214 (≈ 0.055 µM) | 30.8 | 31.3 | 34.1
N#CC1=CN=CC1c1cccc2c1OC(F)(F)O2 (stereo not shown) [FDL, 4-(2,2-difluoro-benzo[1,3]dioxol-4-yl)pyrrole-3-carbonitrile] | 0.173 (≈ 0.697 µM) | 0.0196 (≈ 0.079 µM) | 20.4 | 43.4 | 65.4
